Source: patent US5700635A, “HIV-1 gag cytotoxic T-lymphocyte epitope and method of use” (United Biomedical, Inc., priority 1989, dated 1997)

What was measured:
[1] = system: cytotoxic T lymphocytes specific for gag and HLA B8
[2] = system: cytotoxic T lymphocytes

SMILES: CC[C@H](C)[C@H](NC(=O)[C@H](CCC(=O)O)NC(=O)CNC(=O)[C@@H](NC(=O)[C@@H]1CCCN1C(=O)[C@@H](NC(=O)[C@@H]1CCCN1C(=O)[C@@H]1CCCN1C(=O)[C@@H](N)CC(N)=O)[C@@H](C)CC)C(C)C)C(=O)N[C@@H](Cc1ccc(O)cc1)C(=O)N[C@@H](CCCCN)C(=O)N[C@@H](CCCNC(=N)N)C(=O)N[C@@H](Cc1c[nH]c2ccccc12)C(=O)N[C@H](C(=O)N[C@H](C(=O)N[C@@H](CS)C(=O)O)[C@@H](C)CC)[C@@H](C)CC [p24-13, NH2 -asparagine-proline-proline-isoleucine-proline-valine-glycine-glutamate-isoleucine-tyrosine-lysine-arginine-tryptophan-isoleucine-iso leucine-cysteine-COOH]
- recognition of peptide by cytotoxic T lymphocytes (lysis of target cells) [1]: recognised by cytotoxic T lymphocytes specific for gag and HLA B8
- specific interaction with HLA class I molecule [1]: interacts specifically with HLA B8
- stimulation of cytotoxic T lymphocytes to grow in vitro [2]: have been used to stimulate cytotoxic T lymphocytes to grow in vitro
